# Laboratory results taken from PubChem BioAssay (NCI).
#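 48-hour exposure; five concentrations; linearly interpolated endpoints. TGI marks complete inhibition of growth.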
# How the values were obtained:
# Test in all cases: inhibition of tumour cell growth, NCI panel, 48 h
# 786-0 renal = system: 786-0 renal
# A498 renal = system: A498 renal
# A549 NSCLC = system: A549 NSCLC
# ACHN renal = system: ACHN renal
# CAKI-1 renal = system: CAKI-1 renal
# CCRF-CEM leukemia = system: CCRF-CEM leukemia
# COLO 205 colon = system: COLO 205 colon
# DLD-1 colon = system: DLD-1 colon
# DMS 114 small cell lung = system: DMS 114 small cell lung
# DMS 273 small cell lung = system: DMS 273 small cell lung
# EKVX NSCLC = system: EKVX NSCLC
# HCC-2998 colon = system: HCC-2998 colon
# HCT-116 colon = system: HCT-116 colon
# HCT-15 colon = system: HCT-15 colon
# HL-60(TB) leukemia = system: HL-60(TB) leukemia
# HOP-18 NSCLC = system: HOP-18 NSCLC
# HOP-62 NSCLC = system: HOP-62 NSCLC
# HOP-92 NSCLC = system: HOP-92 NSCLC
# HT29 colon = system: HT29 colon
# IGROV1 ovarian = system: IGROV1 ovarian
# K-562 leukemia = system: K-562 leukemia
# KM12 colon = system: KM12 colon
# KM20L2 colon = system: KM20L2 colon
# LOX IMVI melanoma = system: LOX IMVI melanoma
# LXFL 529 NSCLC = system: LXFL 529 NSCLC
# M14 melanoma = system: M14 melanoma
# M19-MEL melanoma = system: M19-MEL melanoma
# MALME-3M melanoma = system: MALME-3M melanoma
# MOLT-4 leukemia = system: MOLT-4 leukemia
# NCI-H226 lung = system: NCI-H226 lung
# NCI-H23 lung = system: NCI-H23 lung
# NCI-H460 lung = system: NCI-H460 lung
# NCI-H522 lung = system: NCI-H522 lung
# OVCAR-3 ovarian = system: OVCAR-3 ovarian
# OVCAR-4 ovarian = system: OVCAR-4 ovarian
# OVCAR-5 ovarian = system: OVCAR-5 ovarian
# OVCAR-8 ovarian = system: OVCAR-8 ovarian
# RPMI-8226 leukemia = system: RPMI-8226 leukemia
# RXF 393 renal = system: RXF 393 renal
# SF-268 CNS = system: SF-268 CNS
# SF-295 CNS = system: SF-295 CNS
# SF-539 CNS = system: SF-539 CNS
# SK-MEL-2 melanoma = system: SK-MEL-2 melanoma
# SK-MEL-28 melanoma = system: SK-MEL-28 melanoma
# SK-MEL-5 melanoma = system: SK-MEL-5 melanoma
# SK-OV-3 ovarian = system: SK-OV-3 ovarian
# SN12C renal = system: SN12C renal
# SNB-19 CNS = system: SNB-19 CNS
# SNB-75 CNS = system: SNB-75 CNS
# SNB-78 CNS = system: SNB-78 CNS
# SR leukemia = system: SR leukemia
# SW-620 colon = system: SW-620 colon
# TK-10 renal = system: TK-10 renal
# U251 CNS = system: U251 CNS
# UACC-257 melanoma = system: UACC-257 melanoma
# UACC-62 melanoma = system: UACC-62 melanoma
# UO-31 renal = system: UO-31 renal
# XF 498 CNS = system: XF 498 CNS
compound,measurement,setting,value
O=C1Cc2ccccc2CCc2ccccc21,TGI,786-0 renal,> 100 µM
same,TGI,A498 renal,> 100 µM
same,TGI,A549 NSCLC,> 100 µM
same,TGI,ACHN renal,> 100 µM
same,TGI,CAKI-1 renal,> 100 µM
same,TGI,CCRF-CEM leukemia,> 100 µM
same,TGI,COLO 205 colon,> 100 µM
same,TGI,DLD-1 colon,> 100 µM
same,TGI,DMS 114 small cell lung,> 100 µM
same,TGI,DMS 273 small cell lung,> 100 µM
same,TGI,EKVX NSCLC,> 100 µM
same,TGI,HCC-2998 colon,> 100 µM
same,TGI,HCT-116 colon,> 100 µM
same,TGI,HCT-15 colon,> 100 µM
same,TGI,HL-60(TB) leukemia,> 100 µM
same,TGI,HOP-18 NSCLC,> 100 µM
same,TGI,HOP-62 NSCLC,> 100 µM
same,TGI,HOP-92 NSCLC,> 100 µM
same,TGI,HT29 colon,> 100 µM
same,TGI,IGROV1 ovarian,> 100 µM
same,TGI,K-562 leukemia,> 100 µM
same,TGI,KM12 colon,> 100 µM
same,TGI,KM20L2 colon,> 100 µM
same,TGI,LOX IMVI melanoma,> 100 µM
same,TGI,LXFL 529 NSCLC,> 100 µM
same,TGI,M14 melanoma,> 100 µM
same,TGI,M19-MEL melanoma,> 100 µM
same,TGI,MALME-3M melanoma,> 100 µM
same,TGI,MOLT-4 leukemia,> 100 µM
same,TGI,NCI-H226 lung,> 100 µM
same,TGI,NCI-H23 lung,> 100 µM
same,TGI,NCI-H460 lung,> 100 µM
same,TGI,NCI-H522 lung,> 100 µM
same,TGI,OVCAR-3 ovarian,> 100 µM
same,TGI,OVCAR-4 ovarian,> 100 µM
same,TGI,OVCAR-5 ovarian,> 100 µM
same,TGI,OVCAR-8 ovarian,> 100 µM
same,TGI,RPMI-8226 leukemia,> 100 µM
same,TGI,RXF 393 renal,> 100 µM
same,TGI,SF-268 CNS,> 100 µM
same,TGI,SF-295 CNS,> 100 µM
same,TGI,SF-539 CNS,> 100 µM
same,TGI,SK-MEL-2 melanoma,> 100 µM
same,TGI,SK-MEL-28 melanoma,> 100 µM
same,TGI,SK-MEL-5 melanoma,> 100 µM
same,TGI,SK-OV-3 ovarian,> 100 µM
same,TGI,SN12C renal,> 100 µM
same,TGI,SNB-19 CNS,> 100 µM
same,TGI,SNB-75 CNS,> 100 µM
same,TGI,SNB-78 CNS,> 100 µM
same,TGI,SR leukemia,> 100 µM
same,TGI,SW-620 colon,> 100 µM
same,TGI,TK-10 renal,> 100 µM
same,TGI,U251 CNS,> 100 µM
same,TGI,UACC-257 melanoma,> 100 µM
same,TGI,UACC-62 melanoma,> 100 µM
same,TGI,UO-31 renal,> 100 µM
COc1ccc2[nH]c3c(C)c4cc[n+](COC(=O)c5ccccc5)cc4c(C)c3c2c1,TGI,ACHN renal,5.97 µM
same,TGI,CAKI-1 renal,> 100 µM
same,TGI,CCRF-CEM leukemia,1.75 µM
same,TGI,HL-60(TB) leukemia,4.13 µM
same,TGI,HOP-18 NSCLC,0.312 µM
same,TGI,HOP-62 NSCLC,24 µM
same,TGI,K-562 leukemia,1.46 µM
same,TGI,MALME-3M melanoma,7.06 µM
same,TGI,MOLT-4 leukemia,0.584 µM
same,TGI,OVCAR-3 ovarian,5.27 µM
same,TGI,RPMI-8226 leukemia,1.7 µM
same,TGI,SF-268 CNS,3.81 µM
same,TGI,SF-295 CNS,1.65 µM
same,TGI,SK-OV-3 ovarian,5.78 µM
same,TGI,SNB-19 CNS,6.85 µM
same,TGI,SR leukemia,0.213 µM
same,TGI,TK-10 renal,4.4 µM
same,TGI,UO-31 renal,5.68 µM
same,TGI,XF 498 CNS,5.67 µM
COC(=O)Cc1cc(=O)oc2c1C(=O)CCC2,TGI,786-0 renal,> 100 µM
same,TGI,A498 renal,> 100 µM
same,TGI,A549 NSCLC,> 100 µM
same,TGI,ACHN renal,> 100 µM
same,TGI,CAKI-1 renal,> 100 µM
same,TGI,CCRF-CEM leukemia,> 100 µM
same,TGI,COLO 205 colon,> 100 µM
same,TGI,DLD-1 colon,> 100 µM
same,TGI,DMS 114 small cell lung,> 100 µM
same,TGI,DMS 273 small cell lung,> 100 µM
same,TGI,EKVX NSCLC,> 100 µM
same,TGI,HCC-2998 colon,> 100 µM
same,TGI,HCT-116 colon,> 100 µM
same,TGI,HCT-15 colon,> 100 µM
same,TGI,HL-60(TB) leukemia,> 100 µM
same,TGI,HOP-62 NSCLC,> 100 µM
same,TGI,HOP-92 NSCLC,> 100 µM
same,TGI,HT29 colon,> 100 µM
same,TGI,IGROV1 ovarian,> 100 µM
same,TGI,K-562 leukemia,> 100 µM
same,TGI,KM12 colon,> 100 µM
same,TGI,KM20L2 colon,> 100 µM
same,TGI,LOX IMVI melanoma,> 100 µM
same,TGI,LXFL 529 NSCLC,> 100 µM
same,TGI,M14 melanoma,> 100 µM
same,TGI,M19-MEL melanoma,> 100 µM
same,TGI,MALME-3M melanoma,> 100 µM
same,TGI,MOLT-4 leukemia,> 100 µM
same,TGI,NCI-H226 lung,> 100 µM
same,TGI,NCI-H23 lung,> 100 µM
same,TGI,NCI-H460 lung,> 100 µM
same,TGI,NCI-H522 lung,> 100 µM
same,TGI,OVCAR-3 ovarian,> 100 µM
same,TGI,OVCAR-4 ovarian,> 100 µM
same,TGI,OVCAR-5 ovarian,> 100 µM
same,TGI,OVCAR-8 ovarian,> 100 µM
same,TGI,RPMI-8226 leukemia,> 100 µM
same,TGI,RXF 393 renal,> 100 µM
same,TGI,SF-268 CNS,> 100 µM
same,TGI,SF-295 CNS,> 100 µM
same,TGI,SF-539 CNS,> 100 µM
same,TGI,SK-MEL-2 melanoma,> 100 µM
same,TGI,SK-MEL-28 melanoma,> 100 µM
same,TGI,SK-MEL-5 melanoma,> 100 µM
same,TGI,SK-OV-3 ovarian,> 100 µM
same,TGI,SN12C renal,> 100 µM
same,TGI,SNB-19 CNS,> 100 µM
same,TGI,SNB-75 CNS,> 100 µM
same,TGI,SNB-78 CNS,> 100 µM
same,TGI,SW-620 colon,> 100 µM
same,TGI,TK-10 renal,> 100 µM
same,TGI,U251 CNS,> 100 µM
same,TGI,UACC-257 melanoma,> 100 µM
same,TGI,UACC-62 melanoma,> 100 µM
same,TGI,UO-31 renal,> 100 µM
same,TGI,XF 498 CNS,> 100 µM
O=C(O)C(CS)N=Cc1nc(-c2ccccc2)oc1O (stereo unspecified),TGI,786-0 renal,> 100 µM
same,TGI,A498 renal,> 100 µM
same,TGI,A549 NSCLC,> 100 µM
same,TGI,ACHN renal,> 100 µM
same,TGI,CCRF-CEM leukemia,> 100 µM
same,TGI,COLO 205 colon,> 100 µM
same,TGI,DLD-1 colon,> 100 µM
same,TGI,DMS 114 small cell lung,> 100 µM
same,TGI,DMS 273 small cell lung,> 100 µM
same,TGI,EKVX NSCLC,> 100 µM
same,TGI,HCC-2998 colon,> 100 µM
same,TGI,HCT-116 colon,> 100 µM
same,TGI,HCT-15 colon,> 100 µM
same,TGI,HL-60(TB) leukemia,> 100 µM
same,TGI,HOP-62 NSCLC,> 100 µM
same,TGI,HOP-92 NSCLC,> 100 µM
same,TGI,HT29 colon,> 100 µM
same,TGI,IGROV1 ovarian,> 100 µM
same,TGI,K-562 leukemia,> 100 µM
same,TGI,KM20L2 colon,> 100 µM
same,TGI,LOX IMVI melanoma,> 100 µM
same,TGI,LXFL 529 NSCLC,> 100 µM
same,TGI,M14 melanoma,> 100 µM
same,TGI,M19-MEL melanoma,> 100 µM
same,TGI,MALME-3M melanoma,> 100 µM
same,TGI,MOLT-4 leukemia,> 100 µM
same,TGI,NCI-H226 lung,> 100 µM
same,TGI,NCI-H23 lung,> 100 µM
same,TGI,NCI-H460 lung,> 100 µM
same,TGI,NCI-H522 lung,> 100 µM
same,TGI,OVCAR-3 ovarian,> 100 µM
same,TGI,OVCAR-4 ovarian,> 100 µM
same,TGI,OVCAR-5 ovarian,> 100 µM
same,TGI,OVCAR-8 ovarian,> 100 µM
same,TGI,RPMI-8226 leukemia,> 100 µM
same,TGI,RXF 393 renal,> 100 µM
same,TGI,SF-268 CNS,> 100 µM
same,TGI,SF-295 CNS,> 100 µM
same,TGI,SF-539 CNS,> 100 µM
same,TGI,SK-MEL-2 melanoma,> 100 µM
same,TGI,SK-MEL-28 melanoma,> 100 µM
same,TGI,SK-MEL-5 melanoma,> 100 µM
same,TGI,SK-OV-3 ovarian,> 100 µM
same,TGI,SN12C renal,> 100 µM
same,TGI,SNB-19 CNS,> 100 µM
same,TGI,SNB-75 CNS,> 100 µM
same,TGI,SNB-78 CNS,> 100 µM
same,TGI,SR leukemia,> 100 µM
same,TGI,SW-620 colon,> 100 µM
same,TGI,TK-10 renal,> 100 µM
same,TGI,U251 CNS,> 100 µM
same,TGI,UACC-257 melanoma,> 100 µM
same,TGI,UACC-62 melanoma,> 100 µM
same,TGI,UO-31 renal,> 100 µM
